Experimental findings from patent US5733913A, “6-Aryl pyrido[2,3-d] pyrimidines and naphthyridines for inhibiting protein tyrosine kinase mediated cellular proliferation” (priority 1995, dated 1998) are described below.

In experiment [1] the target is T1, mouse PDGF-β receptor tyrosine kinase (Mus musculus, UniProt P05622).
T1 construct: a fragment of DNA that codes for the intracellular tyrosine kinase domain; made in house; host or cells: Sf9 insect cells (baculovirus), cell lysate
Kind of experiment: PDGF receptor tyrosine kinase assay. The experiment is classed as biochemical. The conditions noted are these: for IC50: read-out: Inhibition of Protein Tyrosine Kinases, PDGF, IC50; for inhibition at 50 µM: read-out: Inhibition of Protein Tyrosine Kinases, PDGF, % Inhibition. The method, boiled down:
(§1)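 Intracellular kinase domains expressed in baculovirus-infected SF9 cells; crude lysate used as enzyme. Inhibitor preincubated 10 min at 25 °C with lysate in pH 7.0 Hepes buffer with 10 mM MnCl2 and poly(Glu-Tyr) 4:1, then γ-32P-ATP (50 μM ATP) added for 10 min at 25 °C. TCA-precipitated 32P on filters counted, no-enzyme background subtracted.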

Experiment [2] deals with PDGF receptor. Kind of experiment: PDGF receptor autophosphorylation in RASMC. The conditions noted are these: PDGF-BB 30 ng/mL, read-out: Inhibition of PDGF Stimulated Receptor Auto Phosphorylation (IC50). In kind it is cell-based, rat.
Experimental: Rat aorta smooth muscle cells (RASMC) were isolated from the thoracic aorta of rats and explanted according to the method of Ross, J. Cell. […] Cells were grown in Dulbecco's modified Eagle's medium (DMEM, Gibco) containing 10% fetal calf serum (FBS, Hyclone, Logan, Utah), 1% glutamine (Gibco) and 1% penicillin/streptomycin (Gibco). Cells were identified as smooth muscle cells by their "hill and valley" growth pattern and by fluorescent staining with a monoclonal antibody specific for SMC μ-actin (Sigma). RASMC were used between passages 5 and 20 for all experiments. Test compounds were prepared in dimethylsulfoxide (DMSO) in order to achieve consistency in the vehicle and to ensure compound solubility. Appropriate DMSO controls were simultaneously evaluated with the test compounds.
PDGF Receptor Autophosphorylation
RASMC were grown to confluency in 100 mm dishes. Growth medium was removed and replaced with serum-free medium and cells were incubated at 37° C. for an additional 24 hours. Test compounds were then added directly to the medium and cells incubated for an additional 2 hours. After 2 hours, PDGF-BB was added at a final concentration of 30 ng/mL for 5 minutes at 37° C. to stimulated autophosphorylation of the PDGF receptor. Following growth factor treatment, the medium was removed, and cells were washed with cold phosphate-buffered saline and immediately lysed with 1 mL of lysis buffer (50 mM HEPES[pH 7.5], 150 mM NaCl, 10% glycerol, 1% Triton X-100, 1 mM EDTA, 1 mMEGTA, 50 mM NaF, 1 mM sodium orthovanadate, 30 mM p-nitrophenyl phosphate, 10 mM sodium pyrophosphate, 1 mM phenylmethyl sulfonyl fluoride, 10 μg/mL aprotinin, and 10 μg/mL leupeptin). Lysates were centrifuged at 10,000×g for 10 minutes. […] Following the incubation, protein-A-sepharose beads were added for 2 hours with continuous mixing, and immune complexes bound to the beads washed 4 times with 1 mL lysis wash buffer. Immune complexes were solubilized in 30 μL of Laemmli sample buffer and electrophoresed in 4-20% SDS polyacrylamide gels. Following electrophoresis, separated proteins were transferred to nitrocellulose and immunoblotted with anti-phosphotyrosine antiserum. […] IC50 values were generated from the densitometric data.
Experiment [3] has as its target T2, human FGF-1 (flg) receptor tyrosine kinase (Homo sapiens, UniProt P11362).
T2 construct: a fragment of DNA that codes for the intracellular tyrosine kinase domain; made in house; host or cells: Sf9 insect cells (baculovirus), cell lysate
Put plainly: FGF receptor tyrosine kinase assay. In kind it is biochemical. The conditions noted are these: for IC50: read-out: Inhibition of Protein Tyrosine Kinases, FGF, IC50; for inhibition at 50 µM: read-out: Inhibition of Protein Tyrosine Kinases, FGF, % Inhibition. In short, it runs like this:
as §1

For experiment [4], the target named is T3, C-src kinase (Homo sapiens, UniProt P12931).
T3 construct: made in house; host or cells: baculovirus-infected insect cells
Put plainly: C-src kinase assay. The experiment is classed as biochemical. The conditions noted are these: for IC50: read-out: Inhibition of Protein Tyrosine Kinases, C-src, IC50; for inhibition at 50 µM: read-out: Inhibition of Protein Tyrosine Kinases, C-src, % Inhibition. The method, boiled down:
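Baculovirus-expressed c-src immunopurified on antibody-coated latex beads, assayed in 40 mM Tris pH 7.5, 5 mM MgCl2 with poly GluTyr substrate and 5 μM ATP plus 32P-ATP. Reaction 10 min at room temperature, TCA-quenched, filtered; incorporated label counted by scintillation.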

In experiment [5] the test system is V-src kinase. Put plainly: V-src kinase assay. The conditions noted are these: at 50 μM. In kind it is biochemical. As for the experimental part: V-src and C-src Kinase Assays
V-src or C-src kinase is purified from baculovirus infected insect cell lysates using an antipeptide monoclonal antibody directed against the N-terminal 2-17 amino acids. The antibody, covalently linked to 0.65-μm latex beads, is added to a suspension of insect cell lysis buffer comprised of 150 mM NaCl, 50 mM Tris pH 7.5, 1 mM DTT, 1% NP-40, 2 mM EGTA, 1 mM sodium vanadate, 1 mM PMSF, 1 μg/mL each of leupeptin, pepstatin, and aprotinin. Insect cell lysate containing either the c-src or v-src protein is incubated with these beads for 3-4 hours at 4° C. with rotation. At the end of the lysate incubation, the beads are rinsed 3 times in lysis buffer, resuspended in lysis buffer containing 10% glycerol, and frozen. These latex beads are thawed, rinsed three times in assay buffer which is comprised of 40 mM tris pH 7.5, 5 mM MgCl2, and suspended in the same buffer. In a Millipore 96-well plate with a 0.65 μm polyvinylidine membrane bottom are added the reaction components: 10-μL v-src or c-src beads, 10 μL of 2.5 mg/mL poly GluTyr substrate, 5 μM ATP containing 0.2 μCi labeled ^32 P-ATP, 5μL DMSO containing inhibitors or as a solvent control, and buffer to make the final volume 125 μL. The reaction is started at room temperature by addition of the ATP and quenched 10 minutes later by the addition of 125 μL of 30% TCA, 0.1M sodium pyrophosphate for 5 minutes on ice. The plate is then filtered and the wells washed with two 250-μL aliquots of 15% TCA, 0.1M pyrophosphate. The filters are punched, counted in a liquid scintillation counter, and the data examined for inhibitory activity in comparison to a known inhibitor such as erbstatin. The method is described more fully in J. Med. Chem., 37:598-609 (1994).

As a reminder, the IC50 is the concentration that inhibits the measured activity by half. For orientation: inhibition means the share of the control response that was lost under treatment.

T3 sequence (P12931 whole entry): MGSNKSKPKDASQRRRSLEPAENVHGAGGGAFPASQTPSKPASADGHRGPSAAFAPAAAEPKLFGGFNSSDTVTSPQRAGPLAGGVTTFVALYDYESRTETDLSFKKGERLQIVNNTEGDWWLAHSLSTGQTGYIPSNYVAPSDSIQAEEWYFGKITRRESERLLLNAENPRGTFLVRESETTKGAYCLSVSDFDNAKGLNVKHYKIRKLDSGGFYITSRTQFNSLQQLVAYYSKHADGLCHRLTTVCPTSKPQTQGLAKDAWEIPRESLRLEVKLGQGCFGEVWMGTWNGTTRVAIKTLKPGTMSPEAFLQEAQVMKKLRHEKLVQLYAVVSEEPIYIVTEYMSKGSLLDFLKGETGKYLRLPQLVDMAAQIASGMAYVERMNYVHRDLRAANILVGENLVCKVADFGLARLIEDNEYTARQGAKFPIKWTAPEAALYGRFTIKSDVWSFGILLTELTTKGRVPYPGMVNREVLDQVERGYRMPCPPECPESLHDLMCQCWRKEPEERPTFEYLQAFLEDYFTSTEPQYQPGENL
T1 sequence (P05622 599-961 limits assumed): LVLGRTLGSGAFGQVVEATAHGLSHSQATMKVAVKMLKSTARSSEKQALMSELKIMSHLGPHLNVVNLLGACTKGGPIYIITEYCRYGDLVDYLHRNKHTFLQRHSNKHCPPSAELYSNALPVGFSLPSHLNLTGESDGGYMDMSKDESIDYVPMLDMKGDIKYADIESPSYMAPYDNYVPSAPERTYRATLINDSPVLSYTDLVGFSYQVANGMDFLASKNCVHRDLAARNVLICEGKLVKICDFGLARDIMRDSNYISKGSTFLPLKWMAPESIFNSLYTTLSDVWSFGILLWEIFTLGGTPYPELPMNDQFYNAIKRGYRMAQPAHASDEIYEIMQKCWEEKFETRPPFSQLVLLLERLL
T2 sequence (P11362 478-767 limits assumed): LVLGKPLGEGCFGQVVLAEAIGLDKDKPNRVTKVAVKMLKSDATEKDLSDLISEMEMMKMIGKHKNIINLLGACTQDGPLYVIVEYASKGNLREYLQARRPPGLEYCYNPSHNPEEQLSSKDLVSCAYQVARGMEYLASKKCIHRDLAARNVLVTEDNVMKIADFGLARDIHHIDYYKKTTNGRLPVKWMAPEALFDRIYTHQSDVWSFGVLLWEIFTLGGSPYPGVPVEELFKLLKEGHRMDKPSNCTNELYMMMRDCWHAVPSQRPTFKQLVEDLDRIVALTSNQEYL

Take `CCN(CC)CCCNc1ncc2cc(-c3c(C)cccc3C)c(NC(=O)NC(C)(C)C)nc2n1` [Example 116, 1-tert-Butyl-3-[2-(3-diethylamino-propylamino)-6-(2,6-dimethyl-phenyl)-pyrido[2,3-d]pyrimidin-7-yl]-urea]: the 50% inhibitory concentration (IC50) in experiment [1] worked out at 804 nM; in experiment [2], 910 nM; in experiment [3] it was 335 nM; in experiment [4], 98 nM.

Consider `CN1CCN(CCCNc2ncc3cc(-c4c(Cl)cccc4Cl)c(NC(=O)Nc4ccccc4)nc3n2)CC1` [Example 51, 1-{6-(2,6-Dichlorophenyl)-2-[3-(4-methyl-piperazin-1-yl)-propylamino]-pyrido[2,3-d]pyrimidin-7-yl}-3-phenyl-urea], for which the IC50 worked out at 573 nM in experiment [1], 365 nM in experiment [2], 84 nM in experiment [3] and 100 nM in experiment [4].

With `CN(C)CCCN(C)c1ncc2cc(-c3c(Cl)cccc3Cl)c(NC(=O)NC(C)(C)C)nc2n1` [Example 69, 1-tert-Butyl-3-{6-(2,6-dichlorophenyl)-2-[(3-dimethyl-amino-propyl)-methyl-amino]-pyrido[2,3-d]pyrimidin-7-yl}-urea], the IC50 worked out at 15600 nM in experiment [1], 6460 nM in experiment [2], 1960 nM in experiment [3] and 4660 nM in experiment [4].

Regarding `CCNC(=O)Nc1nc2nc(NCCCN(CC)CC)ncc2cc1-c1c(C)cccc1C` [Example 115], the IC50 is 2630 nM in experiment [1], 5130 nM in experiment [2], 1240 nM in experiment [3] and 24 nM in experiment [4].

In the case of `CCN(CC)CCNc1ncc2cc(-c3c(Cl)cccc3Cl)c(NC(=O)NC(C)(C)C)nc2n1` [Example 66, 1-tert-Butyl-3-[6-(2,6-dichlorophenyl)-2-(2-diethyl-amino-ethylamino)-pyrido[2,3-d]pyrimidin-7-yl]-urea], the IC50 in experiment [1] was 5190 nM; in experiment [2], 5290 nM; in experiment [3], 1280 nM; in experiment [4], 3420 nM.

As to `Cc1cccc(-c2cc3cnc(N)nc3nc2N)c1C` [Example 92, 6-(2,3-Dimethyl-phenyl)-pyrido[2,3-d]pyrimidine-2,7-diamine], the inhibition at 50 µM in experiment [1] stood at 33.1%; in experiment [4], 44.5%. The “Inhibition of Protein Tyrosine Kinases, V-src, % Inhibition” value (“Inhibition … % Inhibition” for short) in experiment [5] is recorded as -10.1%. Moreover, the IC50 in experiment [3] amounted to 2010 nM.

As to `CCN(CC)CCCNc1ncc2cc(-c3c(Cl)cccc3Cl)c(NC(=O)NC(C)C)nc2n1` [Example 113, 1-[6-(2,6-Dichlorophenyl)-2-(3-diethylamino-propyl-amino)-pyrido[2,3-d]pyrimidin-7-yl]-3-isopropyl-urea], the IC50 worked out at 1090 nM in experiment [1], 1100 nM in experiment [2], 77 nM in experiment [3] and 78 nM in experiment [4].

With `CN(C)CCCNc1ncc2cc(-c3c(Cl)cccc3Cl)c(NC(=O)NC(C)(C)C)nc2n1` [Example 28, 1-tert-Butyl-3-[6-(2,6-dichlorophenyl)-2-(3-dimethylamino-propylamino)-pyrido[2,3-d]pyrimidin-7-yl]-urea], the IC50 turned out to be 676 nM in experiment [1], 1380 nM in experiment [2], 75 nM in experiment [3] and 117 nM in experiment [4].

`CCN(CC)CCCNc1ncc2cc(-c3c(C)cccc3C)c(N)nc2n1` [Example 114, N^2-(3-Diethylamino-propyl)-6-(2,6-dimethyl-phenyl)-pyrido[2,3-d]pyrimidine-2,7-diamine]: the IC50 came out at 23900 nM in experiment [1], 15900 nM in experiment [2] and 19200 nM in experiment [3].

Turning to `CCNC(=O)Nc1nc2nc(NCCN(CC)CC)ncc2cc1-c1c(Cl)cccc1Cl` [Example 67, 1-[6-(2,6-Dichlorophenyl)-2-(2-diethylamino-ethyl-amino)-pyrido[2,3-d]pyrimidin-7-yl]-3-ethyl-urea], the IC50 in experiment [2] came out at 9420 nM; in experiment [3], 1390 nM; in experiment [4] it was 1560 nM.

In the case of `CC(C)NC(=O)Nc1nc2nc(N)ncc2cc1-c1c(Cl)cccc1Cl` [Example 89, 1-[2-Amino-6-(2,6-dichlorophenyl)-pyrido[2,3-d]pyrimidin-7-yl]-3-isopropyl-urea], the IC50 in experiment [1] is 857 nM; in experiment [2], 1630 nM; in experiment [3] it was 111 nM; in experiment [4] it was 36 nM.

On to `Nc1ncc2cc(-c3ccccn3)c(N)nc2n1` [Example 111, 6-Pyridin-2-yl-pyrido[2,3-d]pyrimidine-2,7-diamine], for which the IC50 in experiment [1] is 23300 nM. Further, the “Inhibition … % Inhibition” value in experiment [5] is on record as -26.4%. In addition, the inhibition at 50 µM in experiment [3] was found to be 47.7%; in experiment [4], 15.7%.

For `Nc1ncc2cc(-c3cccnc3)c(N)nc2n1` [Example 107, 6-Pyridin-3-yl-pyrido[2,3-d]pyrimidine-2,7-diamine], the inhibition at 50 µM in experiment [1] was determined as 20.5%; in experiment [3], 37.2%; in experiment [4], 37%. Besides, the “Inhibition … % Inhibition” value in experiment [5] is listed as 1.4%.

As for `COc1cccc(-c2cc3cnc(N)nc3nc2N)c1` [Example 102, 6-(3-Methoxy-phenyl)-pyrido[2,3-d]pyrimidine-2,7-diamine], the inhibition at 50 µM in experiment [1] turned out to be 44.4%; in experiment [4], 0.8%. Moreover, the “Inhibition … % Inhibition” value in experiment [5] is -8.2%. Moreover, the IC50 in experiment [3] turned out to be 3110 nM.

For `CCNC(=O)Nc1nc2nc(NCCCN(CC)CC)ncc2cc1-c1c(Cl)cccc1Cl` [Example 112, 1-[6-(2,6-Dichlorophenyl)-2-(3-diethylamino-propyl-amino)-pyrido[2,3-d]pyrimidin-7-yl]-3-ethyl-urea], the IC50 in experiment [1] was 1260 nM; in experiment [2] it was 1080 nM; in experiment [3], 128 nM; in experiment [4] it was 77 nM.

Turning to `CC(C)(C)NC(=O)Nc1nc2nc(NCCCN3CCOCC3)ncc2cc1-c1c(Cl)cccc1Cl` [Example 59, 1-tert-Butyl-3-[6-(2,6-dichlorophenyl)-2-(3-morpholin-4-yl-propylamino)-pyrido[2,3-d]pyrimidin-7-yl]-urea], the IC50 in experiment [1] was determined as 838 nM; in experiment [2], 1190 nM; in experiment [3] it was 72 nM; in experiment [4] it was 85 nM.

Take `COc1ccccc1-c1cc2cnc(N)nc2nc1N` [Example 100, 6-(2-Methoxy-phenyl)-pyrido[2,3-d]pyrimidine-2,7-diamine]: the inhibition at 50 µM was 22.3% in experiment [1], 27.1% in experiment [3] and 46.6% in experiment [4]. In addition, the “Inhibition … % Inhibition” value in experiment [5] is on record as 6.0%.
